Reference: patent publication US7439041B2 (Novartis Vaccines and Diagnostics, Inc., priority 2003, dated 2008)

The substances below were run against T1, PrP^Sc (Mus musculus, UniProt P04925).
Assay type: binding
Target sequence in this assay (P04925 23-230 limits assumed): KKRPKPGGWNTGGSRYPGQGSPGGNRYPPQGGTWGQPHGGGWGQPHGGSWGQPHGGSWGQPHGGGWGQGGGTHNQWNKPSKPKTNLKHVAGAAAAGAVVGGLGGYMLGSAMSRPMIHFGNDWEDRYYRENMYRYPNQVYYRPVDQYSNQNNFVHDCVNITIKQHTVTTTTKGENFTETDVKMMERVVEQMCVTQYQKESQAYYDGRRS
For “QWNKPSKPKTN(GGG)QWNKPSKPKTN [SEQ ID NO: 51]”, the “ELISA A405nm” value was “.923”.

Molecular target: T1, PrP^Sc
Assay type: binding
Design: key to Western Blot: −: Visually evaluated relative signal intensity; +/−: Visually evaluated relative signal intensity; +: Visually evaluated relative signal intensity; ++: Visually evaluated relative signal intensity; +++: Visually evaluated relative signal intensity; ++++: Visually evaluated relative signal intensity; +++++: Visually evaluated relative signal intensity
Remark: another data set of the same source
“(GG)C(GGG)RPMIHFGNDWEDRYYRENMYR(GGG)C [SEQ ID NO: 46]” was tested, and the “Western Blot” value was “+”.
With (GGG)AKRPKPGG [SEQ ID NO: 104] the “Western Blot” value was “+”.
(GGG)GPKRKGPK [SEQ ID NO: 73] was tested, and the “Western Blot” value was “+”.
In the case of (GGG)KARPKPGG [SEQ ID NO: 105], the “Western Blot” value is reported as “+”.
For (GGG)KKAPKAGG [SEQ ID NO: 108], the “Western Blot” value was “+”.
In the case of (GGG)KKAPKPGG [SEQ ID NO: 106], the “Western Blot” value is reported as “+”.
For “(GGG)KKKKKKKK (GGGKKKKKKKK) [SEQ ID NO: 85]”, the “Western Blot” value was “+^3”.
(GGG)KKRAKAGG [SEQ ID NO: 98] was tested, and the “Western Blot” value was “+”.
For (GGG)KKRAKPGG [SEQ ID NO: 96], the “Western Blot” value was “+ and ++”.
For (GGG)KKRPAPGG [SEQ ID NO: 107], the “Western Blot” value was “+”.
In the case of (GGG)KKRPKAGG [SEQ ID NO: 97], the “Western Blot” value is reported as “+ and ++”.
For (GGG)KKRPKPGG [SEQ ID NO: 68], the “Western Blot” value was “+++” and the “binding to PrPSc in infected mouse brain homogenate samples (Western blot, FIG. 4)” value was “strong binding”.
(GGG)KKRPKPGGGKKRPKPGG [SEQ ID NO: 72] was tested, and the “Western Blot” value was “+”.
With “(GGG)KKRPKPGGGQWNKPSKPKTN [SEQ ID NO: 81]” the “Western Blot” value was “+”.
In the case of (GGG)KKRPKPGGWNTGG [SEQ ID NO: 67], the “Western Blot” value is reported as “++”.
“(GGG)KKRPKPGGWNTGGSRYPGQGS [SEQ ID NO: 66]” was tested, and the “Western Blot” value was “+”.
In the case of (GGG)KPSKPK [SEQ ID NO: 80], the “Western Blot” value is reported as “−”.
With (GGG)NKPSKPK [SEQ ID NO: 79] the “Western Blot” value was “−”.
With (GGG)NNKQSPWPTKK [SEQ ID NO: 87] the “Western Blot” value was “−”.
For (GGG)QANKPSKPKTN [SEQ ID NO: 89], the “Western Blot” value was “+ and +++”.
With (GGG)QWNAPSKPKTN [SEQ ID NO: 92] the “Western Blot” value was “− and +”.
(GGG)QWNKASKAKTN [SEQ ID NO: 95] was tested, and the “Western Blot” value was “−”.
(GGG)QWNKASKPKTN [SEQ ID NO: 90] was tested, and the “Western Blot” value was “−”.
With (GGG)QWNKASKPKTN [SEQ ID NO: 99] the “Western Blot” value was “+/−”.
For (GGG)QWNKPSAPKTN [SEQ ID NO: 93], the “Western Blot” value was “− and +”.
(GGG)QWNKPSKAKTN [SEQ ID NO: 91] was tested, and the “Western Blot” value was “− and +”.
In the case of (GGG)QWNKPSKPATN [SEQ ID NO: 94], the “Western Blot” value is reported as “− and +”.
(GGG)QWNKPSKPKTN [SEQ ID NO: 14] was tested, and the “Western Blot” value was “+++”.
In the case of “(GGG)RPMIHFGNDWEDRYYRENMYR(GG)C [SEQ ID NO: 76]”, the “Western Blot” value is reported as “−”.
For (GGG)WNKPSKPKT [SEQ ID NO: 75], the “Western Blot” value was “−”.
“(GGGG)C(GG)GGWGQGGGTHNQWNKPSKPKTNLKHV(GGGG)C [SEQ ID NO: 35]” was tested, and the “Western Blot” value was “+”.
“(GGGG)GGWGQGGGTHNQWNKPSKPKTNLKHV [SEQ ID NO: 36]” was tested, and the “Western Blot” value was “+”.
In the case of (KKK)AGAAAAGAVVGGLGG [SEQ ID NO: 65], the “Western Blot” value is reported as “++”.
For “(KKK)AGAAAAGAVVGGLGGYMLGSAM [SEQ ID NO: 57]”, the “Western Blot” value was “+”.
In the case of “C(GG)GGWGQGGGTHNQWNKPSKPKTNLKHV(GGGG)C [SEQ ID NO: 40]”, the “Western Blot” value is reported as “+”.
In the case of “DDDAGAAAAGAVVGGLGGYMLGSAM [SEQ ID NO: 83]”, the “Western Blot” value is reported as “−”.
“DDDAGAAAAGAVVGGLGGYMLGSAMDDD [SEQ ID NO: 86]” was tested, and the “Western Blot” value was “−”.
DKDKGGVGALAGAAVAAGGDKDK [SEQ ID NO: 88] was tested, and the “Western Blot” value was “−”.
GGTHNQWNKPSKPKTN [SEQ ID NO: 54] was tested, and the “Western Blot” value was “+”.
GGWGQGGGTHNQWNKPSKPKTN [SEQ ID NO: 53] was tested, and the “Western Blot” value was “+”.
“GGWGQGGGTHNQWNKPSKPKTNLKHV(GGGG) [SEQ ID NO: 37]” was tested, and the “Western Blot” value was “+”.
“KKKAGAAAAGAVVGGLGGYMLGSAMDDD [SEQ ID NO: 82]” was tested, and the “Western Blot” value was “−”.
In the case of “KKKAGAAAAGAVVGGLGGYMLGSAMKKK [SEQ ID NO: 84]”, the “Western Blot” value is reported as “+”.
With PHGGGWGQ [SEQ ID NO: 71] the “Western Blot” value was “−”.
PHGGGWGQHGGSWGQPHGGSWGQ [SEQ ID NO: 69] was tested, and the “Western Blot” value was “−”.
PHGGGWGQPHGGSWGQ [SEQ ID NO: 70] was tested, and the “Western Blot” value was “−”.
QWNKPSKPKTN(GGG) [SEQ ID NO: 50] was tested, and the “Western Blot” value was “+”.
In the case of “QWNKPSKPKTN(GGG)QWNKPSKPKTN [SEQ ID NO: 51]”, the “Western Blot” value is reported as “+++”.
For QWNKPSKPKTNLKHV(GGG) [SEQ ID NO: 77], the “Western Blot” value was “++”.
With “RPMIHFGNDWEDRYYRENMYR(GGG) [SEQ ID NO: 44]” the “Western Blot” value was “−”.
